The target of data set [1] is T1, GSK3β (Homo sapiens (Human), UniProt P49841). The experiment in a line: biochemical.
A further data set addresses CDK5/p25 (Homo sapiens (Human), UniProt Q00535).
In data set [2] the target is T1, GSK3β. The experiment in a line: biochemical. The source holds these as a separate data set.
Protocol: GSK3β Microfluidic Mobility-Shift Assay
(§1) Reactions were terminated by the addition of 10 mM EDTA. Substrate and product were separated electrophoretically and fluorescence intensity of the substrate and product was determined by Labchip EZ Reader II (Caliper Life Sciences, MA). The kinase activity was measured as percent conversion. The reactions were performed in duplicate for each sample. […] The results were analyzed by Genedata Assay Analyzer. The percent inhibition was plotted against the compound concentration and the IC50 value was determined from the logistic dose-response curve fitting.
Data set [3] concerns the target T1, GSK3β. Description: biochemical. This is another data set of the same source.
Protocol: (§2) Human GSK3β as a GST fusion expressed in baculoviral system was purchased from BPS Bioscience (San Diego, Calif.). […] Reactions were incubated at room temperature for 60 minutes. 2.5 μL/well of ADP-Glo (Promega, V9103) was added with BioRAPTR, and incubated at room temperature for 40 minutes followed by addition of 5 μL/well of ADP-Glo detection reagent (Promega, V9103) with Combi nL (Thermo, Waltham, Mass.) and incubation at room temperature for 30 minutes. The plates were read on a ViewLux (PerkinElmer, Waltham, Mass.) for luminescence. Data were scaled using the positive and neutral controls and fitted for IC50 as described below.
(§3) 100 mL/well compounds were pinned. […] Incubated at room temperature for 60 minutes. Added 20 μL/well of ADP-glo (Promega, V9103) with Combi, and incubated at room temperature for 40 minutes. Added 40 μL/well of ADP-glo (Promega, V9103) with Combi, incubated at room temperature for 30 minutes. Read on Envision for luminescence.
Data set [4] deals with T1, GSK3β.
Another data set can be described thus: in vitro. Conditions: mouse, mouse plasma, pH 7.4.
The nature of the next data set: physchem. Conditions: PBS, no DMSO, pH 7.4, aqueous buffer, thermodynamic from solid.
The target in data set [5] is T2, CK1δ (Homo sapiens (Human), UniProt P48730). Description: biochemical.
T2 sequence (P48730 whole entry): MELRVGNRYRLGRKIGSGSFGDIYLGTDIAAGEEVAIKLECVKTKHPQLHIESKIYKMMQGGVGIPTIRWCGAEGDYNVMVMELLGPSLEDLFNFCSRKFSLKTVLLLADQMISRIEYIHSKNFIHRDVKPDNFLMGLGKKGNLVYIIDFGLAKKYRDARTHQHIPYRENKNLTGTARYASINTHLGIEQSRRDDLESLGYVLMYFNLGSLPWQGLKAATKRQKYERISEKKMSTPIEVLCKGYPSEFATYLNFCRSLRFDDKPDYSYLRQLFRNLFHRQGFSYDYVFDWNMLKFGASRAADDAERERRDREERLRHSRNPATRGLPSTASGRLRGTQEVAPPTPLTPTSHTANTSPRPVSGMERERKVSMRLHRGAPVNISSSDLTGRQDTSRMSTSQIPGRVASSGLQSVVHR
Description: (§4) Approximately 20,000 Response Units (RU) of anti GST-antibody (GE Healthcare Life Sciences) were immobilized on Flow Cell (FC) 1 and FC2 of a new, freshly conditioned CM5 Sensor Chip (GE Healthcare Life Sciences) in a Biacore T100 instrument utilizing the immobilization wizard of the T100 software package. Approximately 1,500 RU of recombinant GST (GE Healthcare Life Sciences) was then captured on FC1 utilizing the capture wizard protocol of the T100 software package. FC1 is used as a reference subtraction point for this and all SPR assays. Approximately 2,700 RU of recombinant GST-CK1δ was then captured on FC2 utilizing the capture wizard protocol of the T100 software package. FC2 is used as the active flowcell for this and all SPR assays. The analyte plate is generated in dose response fashion in TBS buffer containing a final concentration of 2% DMSO, with a final analyte concentration of 10 μM, 100 nM and 10 nM. A zero value is determined by running injections of buffer containing only 2% DMSO and no analyte. All injections are run in duplicate and are reference subtracted from FC1. A method consisting of a 60 second contact time and 60 second wash time with a flow rate of 30 μL/min was employed. […] Analysis of compounds was done using the 1:1 binding model and affinity measurements in the Biacore T100 evaluation software package.
(§5) Conditioning new chip: PBS immobilization buffer was loaded into buffer shelf and insert buffer line A. Unused CM5 sensor chip was loaded into instrument per user manual. Chip was primed with 6 minutes of buffer injection at 30 μL/min.
(§6) Primed chip again as described above. Generated anti GST antibody solution by mixing 4.5 μL anti GST antibody (GE Healthcare Life Sciences, GST Capture Kit) with 95.5 μL immobilization buffer (GE Healthcare Life Sciences, GST Capture Kit). Put solution into 700 μL small vial and cap. Repeated. Placed both vials in reagent rack 1 of Biacore T100 instrument and insert into machine per user manual. Initiated immobilization of anti GST antibody by utilizing the immobilization Wizard protocol of Biacore T100 software. Immobilized approximately 20,000 Response Units (RU) of anti GST antibody on FC1 and FC2. […] Inserted buffer line A. Repeated prime procedure. Generated GST protein solution by mixing 2 μL of recombinant GST (GE Healthcare Life Sciences, GST Capture Kit) with 98 μL TBS 2% DMSO buffer. Generated GST-CK1δ protein solution by mixing 5 μL of recombinant GST-CK1δ with 95 μL TBS 2% DMSO running buffer. Placed GST protein solution in position B1 on reagent rack 1. Placed GST-CK1δ protein solution in position Cl on reagent rack 1. Initiated a manual injection run and inject for 30 seconds at 5 μL/min GST protein solution on FC1 to generate reference flow cell. […] Captured approximately 1500 RU GST protein on FC1. Captured approximately 2700 RU GST-CK1δ protein on FC2.
(§7) An analyte plate was generated for the assay. Using a standard deep volume 384 well plate, placed 100 μL of a 10 μM analyte in TBS 2% DMSO solution wells A1 and A2. Placed 100 μL of a 50 nM analyte in TBS 2% DMSO solution in wells A3 and A4. Placed 100 μL of a 10 nM analyte in TBS 2% DMSO solution in wells A5 and A6. Placed 100 μL of TBS 2% DMSO running buffer in wells A7 and A8. Repeated steps for subsequent analytes. Placed analyte plate in Biacore T100 per user manual.
Data set [6] concerns the target T3, GSK3α (Homo sapiens (Human), UniProt P49840). The experiment in a line: biochemical.
Protocol: GSK3β Microfluidic Mobility-Shift Assay
as §1
Data set [7] deals with phospho-Tau (Ser199) in SH-SY5Y cells. Description: Tau phosphorylation (Ser199) ELISA in SH-SY5Y cells. Format: cell-based, human. Conditions: SH-SY5Y cells; read-out: p-Tau Inhibition ELISA EC50 SH-SY5Y. (An ELISA detects its analyte on a solid surface through an enzyme-linked reagent.)
Protocol: Tau Phosphorylation and Total Tau Assay
SH-SY5Y cells were maintained in DMEM supplemented with 10% heat-inactivated FBS and 1% penicillin-streptomycin (Invitrogen) unless otherwise stated. ELISA kits for phospho-Tau (Ser199) and total Tau detection were purchased from Invitrogen (KHB0041, and KHB7041 respectively). Briefly, SH-SY5Y cells were seeded at 50,000 cells/200 μL/well in 96 well plates and after overnight incubation, treated with various doses of chemical compounds at 0.2 μL/well. The next day cells were washed with PBS twice before being lysed in 100 μL Lysis buffer/well. […]
A standard protocol using an immunoassay kit to quantify total Tau protein and phospho-Tau (Ser199) protein in SH-SY5Y human neuroblastoma cells was employed. […]
Well strips were warmed and inserted into the frame. […] Samples were loaded to each well that would be analyzed for total Tau, 85 μl standard diluent buffer and 15 μl cell lysate were added. To each well that will be analyzed for pTau (Ser199) 50 μl standard diluent buffer+50 μl cell lysate were added. […] Anti-total Tau was added to wells being analyzed for total Tau, anti-pTau (Ser199) was added to wells being analyzed for pTau (Ser199), and plates were tapped gently on the side to mix. […] Absorbance of each well was read at 450 nm (within 2 hours of adding stop solution).
The next data set deals with AML cell lines. The experiment in a line: May-Grunwald Giemsa staining of AML cell lines. It counts as cell-based. Conditions: three days after treatment, vs vehicle. Here is the method:
Compound 70 Induces Morphological Changes in AML Cell Lines Consistent with Myeloid Differentiation
On day three post-chemical treatment, cytospin preparations were performed. Changes in cellular morphology were evaluated by May-Grunwald Giemsa staining (Sigma Aldrich). Images were acquired by light microscopy at 400× magnification.

Another data set deals with HL-60 and U937 cells. Description: GE-HTS myeloid differentiation signature. Format: cell-based. As to conditions: HL-60 and U937, three days. Here is the method: HL-60 and U937 cells were treated for three days with compound 70 or vehicle. A 32-gene differentiation signature was quantified by the LMA/bead-based approach and a Weighted Summed Score (Differentiation Score) calculated for all genes was determined for each condition. Error bars denote the mean±SD of 8 replicates and statistical significance of the differences between these differentiation scores was derived using a one-way ANOVA with a Bonferroni correction.
Compound 70 Induces a Gene Expression Signature in AML Cell Lines Consistent with Myeloid Differentiation […]

For data set [8], the target named is T3, GSK3α.
Protocol: GSK3β Microfluidic Mobility-Shift Assay
as §1
For data set [9], the system named is amphetamine-induced hyperactivity in mice. The experiment in a line: Amphetamine-induced hyperactivity (AIH). It counts as in vivo, mouse. Conditions: vs vehicle.
The nature of data set [10]: Pharmacokinetics and brain distribution in male C57BL/6 mice. It counts as in vivo, mouse. Conditions: single i.p. dose 30 mg/kg vs CHIR99021 12.5 mg/kg.
Data set [11] concerns the target T1, GSK3β. The source holds these as a separate data set.
Protocol: GSK3β Microfluidic Mobility-Shift Assay
as §1
A further data set addresses LIMK1 (Homo sapiens (Human), UniProt P53667). The experiment in a line: Carna Biosciences kinase assay, LIMK1. Format: biochemical.
Another data set deals with CDK5 (Homo sapiens (Human), UniProt Q00535). Description: Carna Biosciences kinase assay, CDK5. Format: biochemical.
Sequence of CDK5 (Q00535 whole entry): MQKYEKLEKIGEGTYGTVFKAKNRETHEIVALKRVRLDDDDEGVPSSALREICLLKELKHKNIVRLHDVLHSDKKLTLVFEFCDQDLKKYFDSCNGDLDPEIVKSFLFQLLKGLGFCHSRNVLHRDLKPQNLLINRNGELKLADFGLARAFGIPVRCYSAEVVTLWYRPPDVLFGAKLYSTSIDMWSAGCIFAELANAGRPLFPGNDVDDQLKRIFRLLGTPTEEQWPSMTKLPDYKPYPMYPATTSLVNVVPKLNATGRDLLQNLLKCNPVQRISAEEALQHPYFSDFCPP
Sequence of CDK5 (Q15078 99-307 partner): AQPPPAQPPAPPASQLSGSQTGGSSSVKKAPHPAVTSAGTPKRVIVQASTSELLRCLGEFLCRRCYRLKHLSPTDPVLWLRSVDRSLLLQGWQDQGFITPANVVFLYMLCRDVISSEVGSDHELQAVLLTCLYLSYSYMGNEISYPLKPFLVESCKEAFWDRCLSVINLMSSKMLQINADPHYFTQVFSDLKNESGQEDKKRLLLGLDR
In another data set the target is PLK1 (Homo sapiens (Human), UniProt P53350). The experiment in a line: Carna Biosciences kinase assay, PLK1. Format: biochemical.
For data set [12] the following is noted: M (mouse).
The target in the next data set is Erk5 (Homo sapiens (Human), UniProt Q13164). Description: Carna Biosciences kinase assay, Erk5. Format: biochemical.
Sequence of Erk5 (Q13164 whole entry): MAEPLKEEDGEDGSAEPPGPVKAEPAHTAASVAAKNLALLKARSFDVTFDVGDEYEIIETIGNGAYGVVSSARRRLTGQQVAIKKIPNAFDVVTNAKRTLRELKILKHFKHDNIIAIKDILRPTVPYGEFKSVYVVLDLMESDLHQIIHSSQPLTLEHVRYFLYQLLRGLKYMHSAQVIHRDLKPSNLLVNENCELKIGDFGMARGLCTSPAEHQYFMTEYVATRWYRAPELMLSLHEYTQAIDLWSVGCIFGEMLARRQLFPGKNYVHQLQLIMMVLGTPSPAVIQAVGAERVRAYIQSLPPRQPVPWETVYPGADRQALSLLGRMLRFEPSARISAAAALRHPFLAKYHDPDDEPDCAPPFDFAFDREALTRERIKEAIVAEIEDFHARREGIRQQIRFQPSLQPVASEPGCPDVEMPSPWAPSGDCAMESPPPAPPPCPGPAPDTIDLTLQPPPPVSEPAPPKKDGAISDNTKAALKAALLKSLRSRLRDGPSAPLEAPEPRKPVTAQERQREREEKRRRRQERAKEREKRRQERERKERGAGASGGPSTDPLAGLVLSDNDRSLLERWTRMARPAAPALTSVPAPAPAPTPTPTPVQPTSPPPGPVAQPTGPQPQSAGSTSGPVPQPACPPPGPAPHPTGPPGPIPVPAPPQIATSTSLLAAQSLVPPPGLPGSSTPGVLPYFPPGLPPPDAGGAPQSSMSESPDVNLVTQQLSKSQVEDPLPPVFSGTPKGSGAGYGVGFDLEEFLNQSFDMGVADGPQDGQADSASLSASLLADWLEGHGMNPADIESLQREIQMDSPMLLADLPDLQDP
A further data set deals with CDK9 (Homo sapiens (Human), UniProt P50750). Description: Carna Biosciences kinase assay, CDK9. Format: biochemical.
Sequence of CDK9 (P50750 whole entry): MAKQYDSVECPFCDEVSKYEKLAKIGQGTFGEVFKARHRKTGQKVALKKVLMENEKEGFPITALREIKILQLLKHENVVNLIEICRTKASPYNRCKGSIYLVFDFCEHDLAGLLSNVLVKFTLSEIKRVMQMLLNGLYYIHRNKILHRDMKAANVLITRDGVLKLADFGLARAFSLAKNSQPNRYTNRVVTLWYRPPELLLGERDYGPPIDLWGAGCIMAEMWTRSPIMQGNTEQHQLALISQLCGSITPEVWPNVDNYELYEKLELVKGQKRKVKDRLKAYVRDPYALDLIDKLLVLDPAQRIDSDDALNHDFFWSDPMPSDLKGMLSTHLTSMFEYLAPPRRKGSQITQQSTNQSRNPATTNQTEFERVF
Sequence of CDK9 (O60563 whole entry partner): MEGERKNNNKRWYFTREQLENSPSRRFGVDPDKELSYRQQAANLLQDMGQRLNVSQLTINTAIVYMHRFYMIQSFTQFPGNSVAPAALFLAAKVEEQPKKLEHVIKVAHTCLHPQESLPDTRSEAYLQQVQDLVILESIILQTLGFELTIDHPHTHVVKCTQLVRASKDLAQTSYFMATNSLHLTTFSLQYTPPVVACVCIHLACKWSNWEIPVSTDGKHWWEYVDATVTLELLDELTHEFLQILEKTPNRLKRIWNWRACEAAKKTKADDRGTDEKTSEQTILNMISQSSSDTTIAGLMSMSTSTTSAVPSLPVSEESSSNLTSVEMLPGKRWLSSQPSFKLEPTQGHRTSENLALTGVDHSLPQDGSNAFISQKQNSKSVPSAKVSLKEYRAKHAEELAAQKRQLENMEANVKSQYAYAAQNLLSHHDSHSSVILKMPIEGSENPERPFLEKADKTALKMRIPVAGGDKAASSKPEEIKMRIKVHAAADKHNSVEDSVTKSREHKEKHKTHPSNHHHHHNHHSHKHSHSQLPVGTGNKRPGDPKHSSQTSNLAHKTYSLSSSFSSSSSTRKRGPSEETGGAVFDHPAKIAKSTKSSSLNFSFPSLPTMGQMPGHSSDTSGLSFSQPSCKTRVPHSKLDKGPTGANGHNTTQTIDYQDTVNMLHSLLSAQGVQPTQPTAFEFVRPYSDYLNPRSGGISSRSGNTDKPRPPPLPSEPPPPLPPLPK
The next data set concerns panel of 311 kinases. Description: Kinome-wide selectivity profile (Carna Biosciences, 311 kinases). Format: biochemical. Conditions: 10 μM, 311 kinases.
Data set [13] concerns TCF/LEF reporter in HEK293-pBARL cells. Description: cells.
Protocol: (§8) HEK293-pBARL cells were derived from HEK293 cells and they stably expressed a firefly-luciferase reporter gene driven by a promoter containing 12 copies of TCF/LEF binding sequences. These cells were maintained in DMEM and supplemented with 10% FBS and 1% penicillin-streptomycin (Invitrogen). Reporter gene assays were conducted in anti-biotic free media. […] These cells also contained a renilla-luciferase reporter gene driven by the ubiquitous EF1α promoter as a control. HEK293-pBarl reporter cell lines were seeded into 384-well culture plates (Corning) at 6000 cells/well. 24 hours after plating, cells were treated overnight with relevant compounds and assayed using DualGlo assay kit (Promega). Luminescent intensities were read by EnVision (PerkinElmer, Waltham, Mass.). Firefly luciferase intensity is normalized by renilla luciferase intensity.
(§9) Cells were cultured in 384 well plates to appropriate density (40 μl total plating volume). 24 hours after plating, cells were treated with 100 nl compounds. 24 hours after incubation with compounds (48 hours after plating), assay reagents were prepared by mixing Luciferase Assay solution with Luciferase substrate and Stop & Glo solution to Stop & Glo substrate (extra reagents can be aliquoted and frozen for future use and are stable for at least one freeze/thaw cycle). […] The plate was spun down and 10 minutes were allowed for signal stabilization. Luciferase signal on the Perkin Elmer EnVision using the following parameters: Distance between plate & detector (mm)=0.2; Measurement time(s)=0.1; Glow (CT2) correction factor=0. Once the initial data is secure, a volume of Stop & Glo was added equal to each well equal to the volume of Luciferase reagent added above (If 10 μl Luciferase Reagent was added, 10 μl Stop & Glo was also added). The plate was spun down and 10 minutes were allowed for signal stabilization. The plate was read on the EnVision using the same parameters detailed above.
Data set [14] addresses T2, CK1δ.
Description: as §4, §5, §6, §7
For data set [15], the target named is T1, GSK3β. This is another data set of the same source.
In data set [16] the target is T1, GSK3β. Conditions: read-out: IC50 (μM), GSK3β.
Data set [17] addresses T1, GSK3β. The source holds these as a separate data set.
Protocol: as §2, §3
Data set [18] concerns the target T3, GSK3α. As to conditions: read-out: IC50 (μM), GSK3α.
Data set [19] concerns β-catenin nuclear translocation in U2-OS cells. Description: β-Catenin nuclear localization assay. Conditions: read-out: beta-Catenin translocation EC50. It counts as cell-based.
Protocol: β-Catenin Nuclear Localization Assay
U2-OS cells stably expressing two complimentary β-galactosidase fragments (one part on β-Catenin and the other constitutively expressed in the cell nucleus) were maintained in DMEM F12 supplemented with 10% FBS. When β-catenin translocates to the nucleus, the complimentary fragments form a complete β-galactosidase, the amount of which is then quantified by β-galactosidase activity (DiscoveRx). Cells were seeded in a 384-well CulturPlate (Perkin Elmer, Boston, Mass.) with 10,000 per well in 20 μL DMEM F12 containing 10% FCS, 100 U/ml penicillin and 100 μg/mL streptomycin. After overnight incubation at 37° C., cells were stimulated with 100 mL test compound/well and then returned to the incubator for 6 h. Cells were disrupted using 12 μL substrate-containing lysis buffer from the PathHunter Detection Kit in the formulation specified by the supplier (DiscoveRx). Plates were incubated in the dark for 1 h at room temperature before measurement of P3-galactosidase activity (luminescence) on an EnVision plate reader (PerkinElmer, Waltham, Mass.).
Data set [20] deals with TCF/LEF reporter in HEK293-pBARL cells. Conditions: read-out: TCF/LEF EC50.
Protocol: as §8, §9
For data set [21] the following is noted: mouse, plasma.
Protocol: (§10) Plasma protein binding was determined by equilibrium dialysis using the Rapid Equilibrium Dialysis (RED) device (Pierce Biotechnology, Rockford, Ill.) for both human and mouse plasma. […] Compounds were incubated at 37° C. for 5 hours with a 250 rpm orbital shake.
The next data set relates to GSK3. Conditions: read-out: GSK3 IC50 of lithium; cited from earlier work.

In brackets after ≈: the same amount, converted by molar mass. Read-outs that look alike come from different tables or passages of the source.

T1 sequence (P49841 whole entry): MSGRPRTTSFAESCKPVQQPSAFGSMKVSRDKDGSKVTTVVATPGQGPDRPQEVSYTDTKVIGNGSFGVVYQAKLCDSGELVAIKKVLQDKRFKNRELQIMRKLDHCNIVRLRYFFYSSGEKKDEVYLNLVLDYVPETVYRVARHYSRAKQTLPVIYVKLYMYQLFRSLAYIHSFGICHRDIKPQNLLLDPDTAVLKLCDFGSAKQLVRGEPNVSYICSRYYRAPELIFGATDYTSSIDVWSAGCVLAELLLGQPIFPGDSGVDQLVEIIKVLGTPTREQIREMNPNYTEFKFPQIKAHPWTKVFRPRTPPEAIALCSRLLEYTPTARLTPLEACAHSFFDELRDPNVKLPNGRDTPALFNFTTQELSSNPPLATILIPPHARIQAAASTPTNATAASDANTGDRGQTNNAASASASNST
Sequence of CDK5/p25 (Q00535 whole entry, species assumed): as the sequence (Q00535 whole entry) above
Sequence of CDK5/p25 (Q15078 99-307 partner, species assumed): as the sequence (Q15078 99-307 partner) above
T3 sequence (P49840 whole entry): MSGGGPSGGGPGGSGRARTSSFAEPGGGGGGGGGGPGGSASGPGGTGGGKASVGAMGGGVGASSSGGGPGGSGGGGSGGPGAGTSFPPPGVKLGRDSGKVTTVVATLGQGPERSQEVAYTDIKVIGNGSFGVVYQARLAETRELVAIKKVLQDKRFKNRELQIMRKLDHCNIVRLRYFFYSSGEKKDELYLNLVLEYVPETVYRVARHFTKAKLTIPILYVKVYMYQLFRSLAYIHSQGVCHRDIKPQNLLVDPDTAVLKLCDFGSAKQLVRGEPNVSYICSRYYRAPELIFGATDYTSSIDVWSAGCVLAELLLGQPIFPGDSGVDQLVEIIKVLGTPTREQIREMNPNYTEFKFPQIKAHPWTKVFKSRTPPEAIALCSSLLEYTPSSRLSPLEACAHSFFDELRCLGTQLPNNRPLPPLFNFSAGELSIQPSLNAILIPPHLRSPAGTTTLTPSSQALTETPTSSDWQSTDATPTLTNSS
Sequence of LIMK1 (P53667 whole entry): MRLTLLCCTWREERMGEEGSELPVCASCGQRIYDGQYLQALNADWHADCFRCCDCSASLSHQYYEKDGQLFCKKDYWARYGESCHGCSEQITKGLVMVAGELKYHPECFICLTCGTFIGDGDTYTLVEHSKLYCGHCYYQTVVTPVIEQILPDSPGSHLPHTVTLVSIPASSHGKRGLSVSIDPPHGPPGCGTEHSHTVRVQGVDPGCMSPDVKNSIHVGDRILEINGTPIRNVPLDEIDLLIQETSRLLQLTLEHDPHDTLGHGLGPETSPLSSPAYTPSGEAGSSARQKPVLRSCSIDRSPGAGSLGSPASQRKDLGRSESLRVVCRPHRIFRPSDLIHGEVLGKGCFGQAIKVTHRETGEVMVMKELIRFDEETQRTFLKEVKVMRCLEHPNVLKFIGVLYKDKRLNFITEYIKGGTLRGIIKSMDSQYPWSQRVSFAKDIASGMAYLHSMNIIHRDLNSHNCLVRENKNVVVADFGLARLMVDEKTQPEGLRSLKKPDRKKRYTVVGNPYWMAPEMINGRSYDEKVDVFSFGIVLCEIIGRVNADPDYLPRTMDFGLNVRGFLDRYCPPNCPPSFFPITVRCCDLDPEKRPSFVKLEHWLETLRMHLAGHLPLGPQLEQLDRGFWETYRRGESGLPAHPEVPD
Protocol for CDK5/p25: Biochemical characterization of these synthesized compounds were assayed against GSK3β and CDK5/p25, with CDK5/p25 serving as a counter target of GSK3β selectivity. […] The effects of these compounds on survival of SH-SY5Y pathophysiology cells were also monitored.
Protocol for CDK9: (§11) Briefly, a selection of compounds was screened against a panel of kinases at a single concentration of 10 μM. […] This was completed utilizing one of two assays depending on the kinase being examined.
(§12) Test compounds were dissolved in and diluted with dimethylsulfoxide (DMSO) to generate a 100× sample solution. These were then diluted to 4× sample solutions in assay buffer to make the final test compound solutions. Reference compounds for assay control were prepared similarly.
(§13) A solution of IMAP binding reagent (IMAP Screening Express kit; Molecular Devices) (60 μL) was added to each well and incubated for 30 minutes.
(§14) A solution of termination buffer (QuickScout Screening assist MSA; Carna Biosciences) (60 μL) was added to each well. The entire reaction mixture was then applied to a LabChip3000 system (Caliper Life Science) and the product and substrate peptide peaks were separated and quantified.
Protocol for Erk5: as §11, §12, §13, §14
Protocol for LIMK1: as §11, §12, §13, §14
Protocol for PLK1: as §11, §12, §13, §14
Protocol for in vitro: as §10
Protocol for panel of 311 kinases: as §11, §12, §13, §14

In general, Kd refers to a measure of binding affinity in units of concentration. The term IC50 denotes the midpoint of a concentration-inhibition curve. The term fraction unbound denotes free concentration divided by total concentration. The solubility is the dissolved amount per volume that the medium holds. A low value points to a poorly soluble substance. As for `COc1ccccc1C1C2=C(CC(C)(C)CC2=O)Nc2n[nH]c(C)c21` (racemic) [Compound 20, 4-(2-methoxyphenyl)-3,7,7-trimethyl-6,7,8,9-tetrahydro-1H-pyrazolo[3,4-b]quinolin-5(4H)-one], the dissociation constant Kd on GSK3β [1] is 0.06 µM; at GSK3β [4], less than 0.1 µM; at CK1δ [5] it was 5 to 30 µM. Besides, under “mouse plasma, 5 hours”, the “Plasma stability % remaining (in mice)” value came out at 87.2%. Further, the “ADP Glo Assay GSK3β vs CDK5 fold selectivity” value at CDK5/p25 was found to be 57X. Also, the results for the IC50 at GSK3β [2], at GSK3β [3] and against GSK3α [6] were less than 0.1 µM, 0.101 to 1 µM and less than 0.1 µM, respectively. In “in vitro”, this compound showed a fraction unbound at 5 h, 5 µM of 0.229. In addition, in “physchem”, the solubility at 24 h is 130 µM (≈ 43.9 µg/mL).
For `CC1(C)CC(=O)C2=C(C1)Nc1n[nH]c(C(F)(F)F)c1C2(C)c1ccccc1` (racemic) [Compound 71, 4,7,7-trimethyl-4-phenyl-3-(trifluoromethyl)-6,7,8,9-tetrahydro-2H-pyrazolo[3,4-b]quinolin-5(4H)-one], the IC50 against GSK3β [2] is 1 to 5 µM; against GSK3α [6], 0.101 to 1 µM. In addition, the EC50 in [7] was greater than 30 µM.
Turning to `CC1(C)CC(=O)C2=C(C1)Nc1n[nH]c(C(F)(F)F)c1C2(C)c1ccccc1` (single isomer, unassigned) [Compound 70, 4,7,7-trimethyl-4-phenyl-3-(trifluoromethyl)-6,7,8,9-tetrahydro-2H-pyrazolo[3,4-b]quinolin-5(4H)-one], in the data set on AML cell lines, the “morphological changes in AML cell lines” value was “cellular differentiation”. Moreover, the “gene expression signature (32-gene differentiation score)” value with HL-60 and U937 cells was “induced a gene expression signature in AML cell lines consistent with myeloid differentiation”. Besides, the IC50 against GSK3α [8] and against GSK3β [11] was less than 0.1 µM each time. Moreover, the “effect on amphetamine-induced hyperactivity, intraperitoneal injection” value in data set [9] (systemic intraperitoneal injection) is reported as “attenuate amphetamine-induced hyperactivity”. Besides, the “pharmacokinetic profile (systemic exposure and brain distribution) compared to CHIR99021” value in data set [10] was “improved pharmacokinetic profile”.
In general, % Inhibition refers to how much of the control response was suppressed. For the compound `Cc1c[nH]c(-c2cnc(NCCNc3ccc(C#N)cn3)nc2-c2ccc(Cl)cc2Cl)n1` [CHIR99021], the “% Inhibition at 10 μM, LIMK1” value is 78.9% at LIMK1 and “greater than 50%” at LIMK1 (listed as CHIR 99021). In addition, the “% Inhibition at 10 μM, CDK5” value at CDK5 (10 μM) worked out at 51.2%. At PLK1, the “% Inhibition at 10 μM, PLK1” value is 59.2%. The “Microsomal Stability (M:)” value in data set [12] is “M: 4%”. Further, the “% Inhibition at 10 μM, Erk5” value on Erk5 is 61.3%. The “% Inhibition at 10 μM, CDK9” value at CDK9 is 88.1%; on CDK9 (listed as CHIR 99021) it was “greater than 50%”. In the data set on panel of 311 kinases, the “number of kinases inhibited greater than 50% at 10 μM” value is recorded as 21 kinases. Also, in data set [13] (read-out: TCF/LEF (μM)), the EC50 stood at 6 µM.
For the compound `Cc1[nH]nc2c1C(c1ccc(F)cc1)C1=C(CC(C)(C)CC1=O)N2` (stereo not shown) [Compound 12, 4-(4-fluorophenyl)-3,7,7-trimethyl-6,7,8,9-tetrahydro-1H-pyrazolo[3,4-b]quinolin-5(4H)-one], the Kd at GSK3β [1] is 1 to 5 µM; on CK1δ [14] it was less than 0.1 µM. The IC50 at GSK3β [2], against GSK3β [3] and against GSK3α [6] was 1 to 5 µM in each case.
For `COc1ccccc1[C@@H]1C2=C(CC(C)(C)CC2=O)Nc2n[nH]c(C)c21` [Compound 22], the IC50 against CDK5 (dose response) is 1.4 µM; at GSK3α [8] it was less than 0.1 µM; at GSK3β [16], 0.061 µM; against GSK3β [17], less than 0.1 µM; on GSK3α [18] it was 0.027 µM. In addition, the “mode of inhibition (Lineweaver-Burk plot)” value at GSK3β [15] is reported as “competitive inhibition”. Also, the “effect on amphetamine-induced hyperactivity, ICV injection” value in data set [9] (intracerebroventricular injection) was “attenuate amphetamine-induced hyperactivity”.
Regarding `Cc1[nH]nc2c1[C@@H](c1ccccc1C(F)(F)F)C1=C(CC(C)(C)CC1=O)N2` [Compound 29, 3,7,7-trimethyl-4-(2-(trifluoromethyl)phenyl)-6,7,8,9-tetrahydro-2H-pyrazolo[3,4-b]quinolin-5(4H)-one], the IC50 lay within 1 to 5 µM against GSK3β [2], 5 to 30 µM against GSK3β [3] and 0.101 to 1 µM against GSK3α [6]. Moreover, in [13] (read-out: TCF/LEF EC50 (μM)), the EC50 was greater than 25 µM.
On to `COc1ccccc1C1C2=C(CC(C)(C)CC2=O)Nc2n[nH]cc21` (stereo not shown) [Compound 47], for which the results for the EC50 in data set [19] and in data set [20] were 30.4 µM and 11.4 µM, respectively. Moreover, the “ADP Glo Assay GSK3β vs CDK5 fold selectivity” value on CDK5/p25 is reported as 34X. The IC50 is less than 0.1 µM on GSK3α [8], 0.101 to 1 µM against GSK3β [17] and 0.101 to 1 µM on GSK3β [11].
For `CC1(C)CC(=O)C2=C(C1)Nc1n[nH]c(C(F)(F)F)c1C2c1ccccc1C(F)(F)F` (stereo not shown) [Compound 62], the “ADP Glo Assay GSK3β vs CDK5 fold selectivity” value on CDK5/p25 is reported as 165X. Further, the IC50 on GSK3α [8] and on GSK3β [17] was less than 0.1 µM each time.
In the case of `CC1(C)CC(=O)C2=C(C1)Nc1n[nH]c(C(F)(F)F)c1[C@H]2c1ccccc1C(F)(F)F` [Compound 73, 7,7-dimethyl-3-(trifluoromethyl)-4-(2-(trifluoromethyl)phenyl)-6,7,8,9-tetrahydro-2H-pyrazolo[3,4-b]quinolin-5(4H)-one], the half-inhibitory concentration (IC50) on GSK3β [2] and at GSK3α [6] was 0.101 to 1 µM each time. For the same compound, the EC50 in data set [13] (read-out: TCF/LEF EC50 (μM)) was greater than 25 µM.
As to `Cc1[nH]nc2c1C(c1ccccc1)(C(F)(F)F)C1=C(CC(C)(C)CC1=O)N2` (stereo not shown) [Compound 83], the “Plasma stability % remaining (in mice)” value (mouse, plasma, 5 h) is on record as 1016%. The “Protein binding % bound (in mice)” value in [21] was determined as 89.8%. The compound further came in with an IC50 against GSK3β [11] of less than 0.1 µM.
Turning to Lithium, in the data set with GSK3, the IC50 is 2000 µM.

(Values after patent publication US9096594B2, “Kinase inhibitors and methods of use thereof” (priority 2012, dated 2015).)
